What all share (assay): Anti-proliferative activity, cell-titre luminescent viability assay
Format in all cases: cell-based

Assay [1] deals with A549 lung (NSLC) cancer cells. The note with it: Homo sapiens, 72 hours exposure. The protocol:
(§1) The ability of compounds 1001-1018 and 1037-1039 to inhibit the proliferation of cancer cells representative of neuroblastoma, melanoma, prostate cancer, colorectal cancer, non-small cell lung carcinoma, and triple negative breast cancer was assessed (Table 1).
(§2) Briefly, a pre-determined number of cells as calculated from cell growth assays for each of the cell lines employed were seeded into their respective culture medium (using ATCC culture parameters—http://www.atcc.org) and cultured for 24 hours at 37° C. and 5% CO2 in 96-well culture plates. Once attached, each cell line was then exposed to increasing concentrations of each respective analogue (0.03, 0.3, 3 and 30 μM for compounds 1001-13 and 1015-18; 0.1, 0.3, 1, 3, 10 and 30 μM for compounds 1014 and 1037-39), cultured for a further 72 hours and exposed to cell-titre luminescent reagent (100 μL/well) for a further 30 minutes) to measure cell viability. Luminescence was captured using an EnVision multilabel reader and the data for each analogue concentration compared against no treatment control. For compounds 1001-13 and 1015-18, semi-log plots of Percent of Control versus concentration were prepared and IC50 determined using linear regression analysis. For compounds 1014 and 1037-39, cell viability was normalized to control (vehicle alone) and dose-response curves, and half maximal effective concentration (EC50) values were determined using Graph Pad Prism 6 (nonlinear regression sigmoidal dose-response variable slope).

For assay [2], the system named is CaCo2 colorectal cancer cells. The note with it: Homo sapiens, Caco-2, 72 hours exposure. The protocol:
as §1, §2

For assay [3], the system named is DU145 prostate cancer cells. The note with it: Homo sapiens, DU-145, 72 hours exposure. The protocol: as §1, §2
In assay [4] the test system is MDA-MB-231 breast cancer cells. The note with it: Homo sapiens, 72 hours exposure. How it is done:
as §1, §2

Assay [5] has as its system PC3 prostate cancer cells. The note with it: 72 hours exposure. The protocol:
as §1, §2

The next assay relates to SK-Mel-28 melanoma cells. The note with it: Homo sapiens, 72 hours exposure. How it is done: as §1, §2
Assay [6] deals with SK-N-SH neuroblastoma cells. The note with it: Homo sapiens, 72 hours exposure. The protocol: as §1, §2

A word on the IC50: it is the point on the concentration scale where inhibition reaches its midpoint. Higher therefore signals weaker potency.

With `CN(C)CCCn1c2ccccc2c2cc(C(=O)N3CCN(CCc4ccc(F)cc4)CC3)ccc21` [Compound 1002, (9-(3-(dimethylamino)propyl)-9H-carbazol-3-yl)(4-(4-fluorophenethyl)piperazin-1-yl)methanone], the IC50 in assay [1] was 3.4 µM; in assay [2], 3.7 µM; in assay [3], 3.7 µM; in assay [4] it was 4.5 µM; in assay [5], 6.1 µM; in the assay with SK-Mel-28 melanoma cells, 3.7 µM. The molecule also registered an IC50 in assay [6] of 3.4 µM.
For `COc1ccc(CCN2CCN(C(=O)c3ccc4c(c3)c3ccccc3n4CCCN(C)C)CC2)cc1` [Compound 1003, (9-(3-(dimethylamino)propyl)-9H-carbazol-3-yl)(4-(4-methoxyphenethyl)piperazin-1-yl)methanone], the IC50 was 3.4 µM in assay [1]; 3.7 µM in assay [2]; 3.6 µM in assay [3]; 4.3 µM in assay [4]; 3.1 µM in assay [5]; 3.2 µM in the assay on SK-Mel-28 melanoma cells. The molecule also gave an IC50 in assay [6] of 3.1 µM.
On to `CN(C)CCCn1c2ccccc2c2cc(C(=O)N3CCN(CCc4cccc(F)c4)CC3)ccc21` [Compound 1005, (9-(3-(dimethylamino)propyl)-9H-carbazol-3-yl)(4-(3-fluorophenethyl)piperazin-1-yl)methanone], for which the IC50 was determined as 3.5 µM in assay [1]; 3.8 µM in assay [2]; 3.2 µM in assay [3]; 4.1 µM in assay [4]; 3.3 µM in assay [5]; 3.5 µM in the assay on SK-Mel-28 melanoma cells. Moreover, the midpoint of inhibition in assay [6], the IC50, lay at 3.3 µM.
Take `COc1cccc(CCN2CCN(C(=O)c3ccc4c(c3)c3ccccc3n4CCCN(C)C)CC2)c1` [Compound 1006, (9-(3-(dimethylamino)propyl)-9H-carbazol-3-yl)(4-(3-methoxyphenethyl)piperazin-1-yl)methanone]: the IC50 in assay [1] turned out to be 3.5 µM; in assay [2], 4.1 µM; in assay [3], 4.4 µM; in assay [4], 3 µM; in assay [5], 5.2 µM; in the assay with SK-Mel-28 melanoma cells, 3.5 µM. The half-maximal inhibitory concentration (IC50) in assay [6] worked out at 3.4 µM.
As for `CCN(CC)CCCn1c2ccccc2c2cc(C(=O)N3CCN(CCc4ccc(OC)cc4)CC3)ccc21` [Compound 1008, (9-(3-(diethylamino)propyl)-9H-carbazol-3-yl)(4-(4-methoxyphenethyl)piperazin-1-yl)methanone], the IC50 stood at 3.8 µM in assay [1]; 6.7 µM in assay [2]; 4 µM in assay [3]; 3.5 µM in assay [4]; 4.8 µM in assay [5]; 2.5 µM in the assay with SK-Mel-28 melanoma cells. This molecule also displayed an IC50 in assay [6] of 3.3 µM.
Take `CCN(CC)CCCn1c2ccccc2c2cc(C(=O)N3CCN(CCc4ccc5c(c4)OCO5)CC3)ccc21` [Compound 1009, (4-(2-(benzo[d][1,3]dioxol-5-yl)ethyl)piperazin-1-yl)(9-(3-(diethylamino)propyl)-9H-carbazol-3-yl)methanone]: the half-inhibitory concentration (IC50) in assay [1] turned out to be 4 µM; in assay [2] it was 5 µM; in assay [3], 12.1 µM; in assay [4], 4.5 µM; in assay [5], 4.6 µM; in the assay on SK-Mel-28 melanoma cells, 4.1 µM. In assay [6], this molecule returned an IC50 of 4.8 µM.
In the case of `CCN(CC)CCCn1c2ccccc2c2cc(C(=O)N3CCN(CCc4cccc(F)c4)CC3)ccc21` [Compound 1010, (9-(3-(diethylamino)propyl)-9H-carbazol-3-yl)(4-(3-fluorophenethyl)piperazin-1-yl)methanone], the IC50 in assay [1] was 3.6 µM; in assay [2], 4.1 µM; in assay [3], 3.7 µM; in assay [4], 4.2 µM; in assay [5], 3.7 µM; in the assay on SK-Mel-28 melanoma cells it was 3.9 µM. In addition, the IC50 in assay [6] was found to be 3.3 µM.
Take `CCN(CC)CCCn1c2ccccc2c2cc(C(=O)N3CCN(CCc4cccc(OC)c4)CC3)ccc21` [Compound 1011, (9-(3-(diethylamino)propyl)-9H-carbazol-3-yl)(4-(3-methoxyphenethyl)piperazin-1-yl)methanone]: the IC50 in assay [1] was 3.8 µM; in assay [2], 4 µM; in assay [3], 4.5 µM; in assay [4] it was 2.5 µM; in assay [5], 5.5 µM; in the assay on SK-Mel-28 melanoma cells it was 3.4 µM. The IC50 in assay [6] came out at 4.2 µM.
On to `CCN(CC)CCCn1c2ccccc2c2cc(C(=O)N3CCN(CCc4ccccc4)CC3)ccc21` [Compound 1012, (9-(3-(diethylamino)propyl)-9H-carbazol-3-yl)(4-phenethylpiperazin-1-yl)methanone], for which the half-maximal inhibitory concentration (IC50) in assay [1] turned out to be 3.2 µM; in assay [2], 2.8 µM; in assay [3], 3.5 µM; in assay [4] it was 3.1 µM; in assay [5], 4.1 µM; in the assay on SK-Mel-28 melanoma cells it was 2.8 µM. In assay [6], this molecule had an IC50 of 2.9 µM.
As for `COc1ccc(CCN2CCN(C(=O)c3ccc4c(c3)c3ccccc3n4CCCN3CCN(C)CC3)CC2)cc1` [Compound 1014, (4-(4-methoxyphenethyl)piperazin-1-yl)(9-(3-(4-methylpiperazin-1-yl)propyl)-9H-carbazol-3-yl)methanone], the IC50 was 31.1 µM in assay [1]; 13.8 µM in assay [2]; 40.2 µM in assay [3]; 10.2 µM in assay [4]; 3.8 µM in assay [5]; 5.1 µM in the assay on SK-Mel-28 melanoma cells. In assay [6], this molecule registered an IC50 of 8.8 µM.
In the case of `CN1CCN(CCCn2c3ccccc3c3cc(C(=O)N4CCN(CCc5ccc6c(c5)OCO6)CC4)ccc32)CC1` [Compound 1015, (4-(2-(benzo[d][1,3]dioxol-5-yl)ethyl)piperazin-1-yl)(9-(3-(4-methylpiperazin-1-yl)propyl)-9H-carbazol-3-yl)methanone], the IC50 is 4 µM in assay [1]; 5.5 µM in assay [2]; 15.5 µM in assay [3]; 4.4 µM in assay [4]; 5.3 µM in assay [5]; 3.4 µM in the assay on SK-Mel-28 melanoma cells. The same molecule had an IC50 in assay [6] of 5.1 µM.
For the molecule `COc1cccc(CCN2CCN(C(=O)c3ccc4c(c3)c3ccccc3n4CCCN3CCN(C)CC3)CC2)c1` [Compound 1017, (4-(3-methoxyphenethyl)piperazin-1-yl)(9-(3-(4-methylpiperazin-1-yl)propyl)-9H-carbazol-3-yl)methanone], the IC50 worked out at 3.6 µM in assay [1]; 4.6 µM in assay [2]; 6.6 µM in assay [3]; 3.7 µM in assay [4]; 5.2 µM in assay [5]; 4 µM in the assay with SK-Mel-28 melanoma cells. It took 4.7 µM to reach half-maximal inhibition in assay [6] (IC50).
Take `O=C(c1ccc2[nH]c3ccccc3c2c1)N1CCN(CCc2ccc(F)cc2)CC1` [Compound 1037, (9H-carbazol-3-yl)(4-(4-fluorophenethyl)piperazin-1-yl)methanone]: the IC50 in assay [1] was 16.3 µM; in assay [2], > 30 µM; in assay [3] it was > 30 µM; in assay [4] it was > 30 µM; in assay [5], > 30 µM; with SK-Mel-28 melanoma cells it was > 30 µM. Also, in assay [6], the IC50 is > 30 µM.
On to `O=C(c1ccc2c(c1)c1ccccc1n2CCCCl)N1CCN(CCc2ccc(F)cc2)CC1` [Compound 1038, (9-(3-chloropropyl)-9H-carbazol-3-yl)(4-(4-fluorophenethyl)piperazin-1-yl)methanone], for which the IC50 (in assay [1]; in assay [2]; in assay [3]; in assay [4]; in assay [5]; in the assay with SK-Mel-28 melanoma cells) was > 30 µM in each case. The IC50 in assay [6] is > 30 µM.
As for `O=C(c1ccc2c(c1)c1ccccc1n2CCc1ccc(F)cc1)N1CCN(CCc2ccc(F)cc2)CC1` [Compound 1039, (9-(4-fluorophenethyl)-9H-carbazol-3-yl)(4-(4-fluorophenethyl)piperazin-1-yl)methanone], the IC50 (in assay [1]; in assay [2]; in assay [3]; in assay [4]; in assay [5]; with SK-Mel-28 melanoma cells) was > 30 µM throughout. For the same molecule, in assay [6], the IC50 is > 30 µM.

The values are drawn from US20170158636A1, “FUNCTIONALISED AND SUBSTITUTED CARBAZOLES AS ANTI-CANCER AGENTS” (Novogen Ltd., priority 2014, published 2017).
